Measurements taken from patent publication US6613317B1, “Volatile attractants for diabrotica species” (priority 1988, dated 2003).
Marks after values point to notes of the source that are not given here.

How the values were obtained:
[1] = system: northern corn rootworm (NCR); experiment: Sticky trap attraction in corn, phenylethanol analogues (Example 6); type: in vivo, Diabrotica barberi; conditions: for Mean number of NCR per trap (± standard deviation) / Mean number (control subtracted) of NCR per trap: four replicates; for Mean number of NCR per trap (± standard deviation): 24 hour
Procedure: (§1) Test chemicals (purchased from Aldrich Chemical Co.; Milwaukee, Wis.) were applied by capillary micropipettes to cotton dental wicks that were attached to tops of 1.0 liter cylindrical paper cartons covered with TangleTrap™, Grand Rapids, Mich. The trapping techniques used were as previously described in Example 1. Unless otherwise indicated, all treatments were made at a dosage of 100 mg or 100 μL of attractant per trap. Control traps had untreated wicks. Four replicates of treated and untreated traps were positioned randomly 10 meters apart on top of 1 m high posts along the edges of 25-50 ha. fields of hybrid corn (Zea mays), infested with adult NCR, SCR, and WCR beetles. Several experiments detailed in the Tables were made in a 0.4 ha plot of sweet corn (Illini X-tra Sweet).
(§2) Attraction of Diabrotica species adults of the sticky traps was measured by the mean number of beetles caught after 1 day (ca. 24 hours) exposure. The significance of the treatments was determined by analysis of variance and the individual means were separated by Duncan's multiple range test (Statistical Package for the Social Sciences, Nie, et al., 2nd. ed. McGraw-Hill, New York (1975). The data was logarithmically transformed for statistical analysis. Means and standard deviations are presented for the untransformed data. Significance levels were set at P=0.05 for all statistical analyses.

[2] = system: western corn rootworm (WCR); experiment: as above; type: in vivo, Diabrotica virgifera virgifera; conditions: 100 mg per trap, four replicates, 24 hour; for Mean number of WCR per trap (± standard deviation), column WCW: Table 17
Procedure: as §1, §2

[3] = system: western corn rootworm (WCR) adults; experiment: Sticky trap attraction in corn, estragole analogues (Example 3); type: in vivo, Diabrotica virgifera virgifera; conditions: 100 mg per trap, n = 4
Procedure: as §1, with “chemicals” for “chemicals (purchased from Aldrich Chemical Co.; Milwaukee, Wis.)”, “Cinnamyl alcohol, 4-methoxycinnamaldehyde, cinnamyl acetate, and 4-(4′methoxyphenyl)-3-butene-2-one which are solids at ambient temperature were prepared as standard w/v solutions in acetone prior to dosing the cotton wicks. All” for “Unless otherwise indicated, all”
as §2

[4] = system: southern corn rootworm (SCR) adults; experiment: as above; type: in vivo, Diabrotica undecimpunctata howardi; conditions: 100 mg per trap, n = 4
Procedure: as §1, with “chemicals” for “chemicals (purchased from Aldrich Chemical Co.; Milwaukee, Wis.)”, “Cinnamyl alcohol, 4-methoxycinnamaldehyde, cinnamyl acetate, and 4-(4′methoxyphenyl)-3-butene-2-one which are solids at ambient temperature were prepared as standard w/v solutions in acetone prior to dosing the cotton wicks. All” for “Unless otherwise indicated, all”
as §2

[5] = system: northern corn rootworm (NCR) adults; experiment: as above; type: in vivo, Diabrotica barberi; conditions: 100 mg per trap, n = 4
Procedure: as §1, with “chemicals” for “chemicals (purchased from Aldrich Chemical Co.; Milwaukee, Wis.)”, “Cinnamyl alcohol, 4-methoxycinnamaldehyde, cinnamyl acetate, and 4-(4′methoxyphenyl)-3-butene-2-one which are solids at ambient temperature were prepared as standard w/v solutions in acetone prior to dosing the cotton wicks. All” for “Unless otherwise indicated, all”
as §2

[6] = system: NCR; experiment: Limit of response rating of squash blossom volatiles on sticky traps (Example 5); type: in vivo, Diabrotica barberi; conditions: 24 hour; four replicate traps; 0.01 mg to 200 mg
Procedure: (§3) Over 40 individual volatile chemicals have been isolated from Cucurbita maxima blossoms and circa 25 of these have been unequivocally identified (Andersen, J. F., J. Agric. Food Chem., 35:60-62 (1987): Andersen, J. F. and Metcalf, R. L., J. Chem. Ecol., 12:687-699 (1986)). The major odor components were evaluated as potential attractants for adult Diabrotica species using cylindrical sticky traps baited with dental cotton wicks (Metcalf, R. L., and Lampman, R. L., Paper submitted to J. Econ. Entomol., (1988)) containing from 0.01 mg to 200 mg of volatile compound.

[7] = system: SCR; experiment: as above; type: in vivo, Diabrotica undecimpunctata howardi; conditions: 24 hour; four replicate traps; 0.01 mg to 200 mg
Procedure: as §3

[8] = system: WCR; experiment: as above; type: in vivo, Diabrotica virgifera virgifera; conditions: 24 hour; four replicate traps; 0.01 mg to 200 mg
Procedure: as §3

[9] = day 1 after single 100 mg dosage on cotton wick
[10] = day 2 after single 100 mg dosage on cotton wick
[11] = day 3 after single 100 mg dosage on cotton wick
[12] = day 4 after single 100 mg dosage on cotton wick
[13] = day 5 after single 100 mg dosage on cotton wick
[14] = day 6 after single 100 mg dosage on cotton wick
[15] = day 7 after single 100 mg dosage on cotton wick
[16] = day 8 after single 100 mg dosage on cotton wick
[17] = day 11 after single 100 mg dosage on cotton wick

Structure (SMILES): COc1ccc(CCO)cc1 [4-methoxyphenylethanol]
- Mean number of NCR per trap (± standard deviation) ([1]; Table 15, 100 mg per trap): 187.7 ± 62.5d* per trap
- Mean number of NCR per trap (± standard deviation) ([1]; Table 16, 100 mg per trap): 60.3 ± 26.8b* per trap
- Mean number of NCR per trap (± standard deviation) ([1]; Table 17, 100 mg per trap): 56.7 ± 7.5c per trap
- lowest level attractive to NCR ([1]; Table 18): ≤ 0.1 mg
- Mean number of NCR per trap (± standard deviation) ([1]; Table 18, 0.1 mg): 16.2 ± 1.2b per trap
- Mean number of NCR per trap (± standard deviation) ([1]; Table 18, 0.3 mg): 32.7 ± 9.4c per trap
- Mean number of NCR per trap (± standard deviation) ([1]; Table 18, 1 mg): 41.0 ± 23.4c per trap
- Mean number of NCR per trap (± standard deviation) ([1]; Table 18, 3 mg): 72.0 ± 10.8d per trap
- Mean number (control subtracted) of NCR per trap [1, 9]: 134.5 per trap
- Mean number (control subtracted) of NCR per trap [1, 10]: 231.8 per trap
- Mean number (control subtracted) of NCR per trap [1, 11]: 93.1 per trap
- Mean number (control subtracted) of NCR per trap [1, 12]: 51.5 per trap
- Mean number (control subtracted) of NCR per trap [1, 13]: 128.9 per trap
- Mean number (control subtracted) of NCR per trap [1, 14]: 49.2 per trap
- Mean number (control subtracted) of NCR per trap [1, 15]: 76.7 per trap
- Mean number (control subtracted) of NCR per trap [1, 16]: 99.0 per trap
- Mean number (control subtracted) of NCR per trap [1, 17]: 64.8 per trap
- Mean number of WCR per trap (±standard deviation) ([2]; Table 15): 5.7 ± 2.8a per trap
- Mean number of WCR per trap (±standard deviation) ([2]; Table 16): 3.5 ± 2.1a per trap
- Mean number of WCR per trap (± standard deviation), column WCW [2]: 6.0 ± 4.2a per trap

Structure (SMILES): OCCCc1ccccc1
- Mean number of NCR per trap (± standard deviation) ([1]; Table 17, 100 mg per trap): 36.2 ± 12.2c per trap
- Mean number (control subtracted) of NCR per trap [1, 9]: 76.5 per trap
- Mean number (control subtracted) of NCR per trap [1, 10]: 115.3 per trap
- Mean number (control subtracted) of NCR per trap [1, 11]: 38.8 per trap
- Mean number (control subtracted) of NCR per trap [1, 12]: 25.0 per trap
- Mean number (control subtracted) of NCR per trap [1, 13]: 41.8 per trap
- Mean number (control subtracted) of NCR per trap [1, 14]: 10.5 per trap
- Mean number (control subtracted) of NCR per trap [1, 15]: 10.7 per trap
- Mean number (control subtracted) of NCR per trap [1, 16]: 29.5 per trap
- Mean number (control subtracted) of NCR per trap [1, 17]: 4.5 per trap
- Mean number of WCR per trap (± standard deviation), column WCW [2]: 4.0 ± 2.9a per trap

Structure (SMILES): OCCc1ccc(F)cc1 [4-fluorophenylethanol]
- Mean number of NCR per trap (± standard deviation) ([1]; Table 15, 100 mg per trap): 38.0 ± 6.2b per trap
- Mean number of WCR per trap (±standard deviation) ([2]; Table 15): 14.0 ± 12.3a per trap

Structure (SMILES): COc1ccc(CCCO)cc1 [4-methoxyphenylpropanol]
- Mean number of NCR per trap (± standard deviation) ([1]; Table 17, 100 mg per trap): 15.5 ± 6.2b per trap
- Mean number of WCR per trap (± standard deviation), column WCW [2]: 3.2 ± 2.2a per trap

Structure (SMILES): COc1cccc(CCO)c1 [3-methoxyphenylethanol]
- Mean number of NCR per trap (± standard deviation) ([1]; Table 16, 100 mg per trap): 7.2 ± 3.4a per trap
- Mean number of WCR per trap (±standard deviation) ([2]; Table 16): 3.7 ± 2.1a per trap

Structure (SMILES): Nc1ccc(CCO)cc1 [4-aminophenylethanol]
- Mean number of NCR per trap (± standard deviation) ([1]; Table 15, 100 mg per trap): 10.5 ± 2.1a per trap
- Mean number of WCR per trap (±standard deviation) ([2]; Table 15): 8.5 ± 3.4a per trap

Structure (SMILES): O=[N+]([O-])c1ccc(CCO)cc1 [4-nitrophenylethanol]
- Mean number of NCR per trap (± standard deviation) ([1]; Table 15, 100 mg per trap): 7.7 ± 2.7a per trap
- Mean number of WCR per trap (±standard deviation) ([2]; Table 15): 7.9 ± 5.1a per trap

Structure (SMILES): O=CC=Cc1ccccc1 [XII, cinnamaldehyde]
- Mean number of WCR adults per sticky trap (±standard deviation) after 24 hours ([3]; August 4 second year): 32.2 ± 8.5^b per sticky trap
- Mean number of WCR per sticky trap after 24 hours ([3]; August 5 (Table 10)): 44.5 ± 25.5^d per sticky trap
- Mean number of WCR adults per sticky trap (±standard deviation) after 24 hours ([3]; August 5 first year): 4.0 ± 1.8^b per sticky trap
- Mean number of WCR (±standard deviation) per sticky trap after 24 hours ([3]; August 7 (Table 11)): 61.5 ± 15.6^b per sticky trap
- Mean number of WCR adults per sticky trap (±standard deviation) after 24 hours ([3]; September 11): 1.3 ± 1.3^a per sticky trap
- Mean number of SCR adults per sticky trap (±standard deviation) after 24 hours ([4]; August 4 second year): 135.5 ± 29.3^d per sticky trap
- Mean number of SCR per sticky trap after 24 hours ([4]; August 5 (Table 10)): 67.5 ± 23.1^d per sticky trap
- Mean number of SCR adults per sticky trap (±standard deviation) after 24 hours ([4]; August 5 first year): 431.2 ± 120.3^d per sticky trap
- Mean number of SCR (±standard deviation) per sticky trap after 24 hours ([4]; August 7 (Table 11)): 63.5 ± 25.7^c per sticky trap
- Mean number of SCR adults per sticky trap (±standard deviation) after 24 hours ([4]; September 11): 24.0 ± 10.5^c per sticky trap
- Mean number of NCR per sticky trap after 24 hours ([5]; August 5 (Table 10)): 1.2 ± 1.3^a per sticky trap
- Mean number of NCR (±standard deviation) per sticky trap after 24 hours ([5]; August 7 (Table 11)): 0.3 ± 0.5^a per sticky trap
- Attractant Rating NCR (by limit of response) [6]: 0 (200)
- Attractant Rating SCR (by limit of response) [7]: +4 (1-3)
- Attractant Rating WCR (by limit of response) [8]: +3 (3-10)
- Mean number of NCR per trap (± standard deviation) ([1]; Table 17, 100 mg per trap): 15.5 ± 3.8b per trap
- Mean number of WCR per trap (± standard deviation), column WCW [2]: 56.0 ± 34.6b per trap

Structure (SMILES): COc1ccccc1CCO [2-methoxyphenylethanol]
- Mean number of NCR per trap (± standard deviation) ([1]; Table 16, 100 mg per trap): 13.5 ± 9.3a per trap
- Mean number of WCR per trap (±standard deviation) ([2]; Table 16): 6.0 ± 5.1a per trap

Structure (SMILES): OCCc1ccc(Cl)cc1 [4-chlorophenylethanol]
- Mean number of NCR per trap (± standard deviation) ([1]; Table 15, 100 mg per trap): 30.0 ± 7.4b per trap
- Mean number of WCR per trap (±standard deviation) ([2]; Table 15): 13.7 ± 3.9a per trap

Structure (SMILES): Cc1ccc(CCO)cc1 [4-methylphenylethanol]
- Mean number of NCR per trap (± standard deviation) ([1]; Table 15, 100 mg per trap): 89.2 ± 7.8c per trap
- Mean number of WCR per trap (±standard deviation) ([2]; Table 15): 12.2 ± 5.6a per trap
